Laboratory results published in ChEMBL document CHEMBL1909046, “DrugMatrix in vitro pharmacology data”.
pIC50, pKi: −log10 of the molar value.

Key:
[1] = molecular target: T1, Neuropeptide Y receptor type 2 (Homo sapiens, UniProt P49146); type: cell membranes, Membrane; details: kan-ts; note: in other assays of this panel Not Active means under 50% inhibition at 10 µM
T1 sequence (P49146 whole entry): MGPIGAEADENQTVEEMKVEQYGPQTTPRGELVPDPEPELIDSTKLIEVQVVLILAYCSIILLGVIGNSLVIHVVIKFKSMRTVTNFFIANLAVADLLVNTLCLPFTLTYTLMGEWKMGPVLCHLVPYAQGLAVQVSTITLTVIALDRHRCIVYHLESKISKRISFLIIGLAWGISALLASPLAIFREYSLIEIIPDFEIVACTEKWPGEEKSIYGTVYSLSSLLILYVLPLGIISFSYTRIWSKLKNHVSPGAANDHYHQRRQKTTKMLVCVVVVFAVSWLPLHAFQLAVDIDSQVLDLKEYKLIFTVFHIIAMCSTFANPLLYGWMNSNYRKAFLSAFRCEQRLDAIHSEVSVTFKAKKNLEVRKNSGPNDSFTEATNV

Cytochrome P450 2C19 = Cytochrome P450 2C19 (Homo sapiens, UniProt P33261); details: bti-tn-5b1-4; note: in other assays of this panel Not Active means under 50% inhibition at 10 µM
Cytochrome P450 2C19, sequence (P33261 whole entry): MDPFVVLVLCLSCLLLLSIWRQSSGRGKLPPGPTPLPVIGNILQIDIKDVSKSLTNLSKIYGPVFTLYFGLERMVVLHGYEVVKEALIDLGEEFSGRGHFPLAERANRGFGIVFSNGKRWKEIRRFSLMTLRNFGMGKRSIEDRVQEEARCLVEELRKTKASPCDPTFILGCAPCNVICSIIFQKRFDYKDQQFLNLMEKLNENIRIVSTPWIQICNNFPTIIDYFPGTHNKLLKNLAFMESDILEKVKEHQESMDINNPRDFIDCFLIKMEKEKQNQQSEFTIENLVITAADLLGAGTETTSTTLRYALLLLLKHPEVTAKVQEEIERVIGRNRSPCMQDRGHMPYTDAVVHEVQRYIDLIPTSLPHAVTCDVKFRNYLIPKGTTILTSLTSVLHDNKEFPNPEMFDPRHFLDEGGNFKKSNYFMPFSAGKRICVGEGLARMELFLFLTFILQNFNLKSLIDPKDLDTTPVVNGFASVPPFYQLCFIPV

[2] = molecular target: Mitogen-activated protein kinase 14 (Homo sapiens, UniProt Q16539); design: species or system Escherichia coli;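 note: inhibition of p38alpha enzyme activity in a biochemical kinase assay, with myelin basic protein serving as substrate; in other assays of this panel Not Active means under 50% inhibition at 10 µM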
Mitogen-activated protein kinase 14, sequence (Q16539 whole entry): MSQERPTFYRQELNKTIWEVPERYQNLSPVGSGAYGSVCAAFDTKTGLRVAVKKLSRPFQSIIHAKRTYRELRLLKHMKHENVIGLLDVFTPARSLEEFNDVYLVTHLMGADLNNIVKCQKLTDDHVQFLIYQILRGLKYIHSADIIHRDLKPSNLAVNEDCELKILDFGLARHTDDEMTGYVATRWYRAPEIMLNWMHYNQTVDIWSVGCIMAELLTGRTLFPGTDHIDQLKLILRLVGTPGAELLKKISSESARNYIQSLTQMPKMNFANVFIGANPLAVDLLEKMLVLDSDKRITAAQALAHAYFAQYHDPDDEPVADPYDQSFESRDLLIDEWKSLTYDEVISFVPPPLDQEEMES

B2 bradykinin receptor = molecular target: T2, B2 bradykinin receptor (Homo sapiens, UniProt P30411); type: cell membranes, Membrane; details: chem-1; note: in other assays of this panel Not Active means under 50% inhibition at 10 µM
T2 sequence (P30411 whole entry): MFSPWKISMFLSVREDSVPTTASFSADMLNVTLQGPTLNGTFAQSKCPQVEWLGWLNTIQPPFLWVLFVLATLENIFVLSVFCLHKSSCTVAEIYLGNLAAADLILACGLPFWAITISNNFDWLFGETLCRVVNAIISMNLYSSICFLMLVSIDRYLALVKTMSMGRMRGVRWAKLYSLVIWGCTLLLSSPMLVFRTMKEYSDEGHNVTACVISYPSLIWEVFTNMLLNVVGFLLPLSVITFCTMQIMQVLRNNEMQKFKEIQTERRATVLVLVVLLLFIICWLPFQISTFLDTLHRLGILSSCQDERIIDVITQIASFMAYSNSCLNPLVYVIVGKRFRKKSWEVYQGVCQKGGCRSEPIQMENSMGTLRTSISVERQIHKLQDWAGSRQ

[3] = molecular target: T3, Amine oxidase [flavin-containing] A (Homo sapiens, UniProt P21397); test: DRUGMATRIX: Monoamine Oxidase MAO-A enzyme inhibition (substrate: Kynuramine); design: species or system BTI-TN-5B1-4; details: bti-tn-5b1-4; Not Active = under 50% inhibition at 10 µM
T3 sequence (P21397 whole entry): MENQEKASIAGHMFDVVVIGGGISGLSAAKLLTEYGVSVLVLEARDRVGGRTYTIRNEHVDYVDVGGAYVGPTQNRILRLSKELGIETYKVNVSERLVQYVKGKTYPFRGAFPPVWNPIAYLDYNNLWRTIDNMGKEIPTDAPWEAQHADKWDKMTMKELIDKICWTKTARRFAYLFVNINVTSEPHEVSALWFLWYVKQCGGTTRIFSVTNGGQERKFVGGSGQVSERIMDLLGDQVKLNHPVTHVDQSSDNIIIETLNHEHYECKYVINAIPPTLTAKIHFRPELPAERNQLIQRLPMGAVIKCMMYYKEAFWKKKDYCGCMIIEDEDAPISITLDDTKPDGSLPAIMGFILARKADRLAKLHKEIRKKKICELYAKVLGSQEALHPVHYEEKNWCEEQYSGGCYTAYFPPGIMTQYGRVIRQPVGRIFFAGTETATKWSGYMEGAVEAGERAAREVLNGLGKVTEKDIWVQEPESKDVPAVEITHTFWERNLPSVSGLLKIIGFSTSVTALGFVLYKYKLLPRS

[4] = DRUGMATRIX: GABAA, Chloride Channel, TBOB radioligand binding (ligand: [3H] TBOB); type: cell membranes, Rattus norvegicus, Wistar, Cerebral cortex, Membrane; details: Not Active = under 50% inhibition at 10 µM
[5] = molecular target: T4, Alpha-1A adrenergic receptor (Rattus norvegicus, UniProt P43140); test: DRUGMATRIX: Alpha-1A adrenergic receptor radioligand binding (ligand: prazosin); type: cell membranes, Wistar, Submaxillary gland, Membrane; details: Not Active = under 50% inhibition at 10 µM
T4 sequence (P43140 whole entry): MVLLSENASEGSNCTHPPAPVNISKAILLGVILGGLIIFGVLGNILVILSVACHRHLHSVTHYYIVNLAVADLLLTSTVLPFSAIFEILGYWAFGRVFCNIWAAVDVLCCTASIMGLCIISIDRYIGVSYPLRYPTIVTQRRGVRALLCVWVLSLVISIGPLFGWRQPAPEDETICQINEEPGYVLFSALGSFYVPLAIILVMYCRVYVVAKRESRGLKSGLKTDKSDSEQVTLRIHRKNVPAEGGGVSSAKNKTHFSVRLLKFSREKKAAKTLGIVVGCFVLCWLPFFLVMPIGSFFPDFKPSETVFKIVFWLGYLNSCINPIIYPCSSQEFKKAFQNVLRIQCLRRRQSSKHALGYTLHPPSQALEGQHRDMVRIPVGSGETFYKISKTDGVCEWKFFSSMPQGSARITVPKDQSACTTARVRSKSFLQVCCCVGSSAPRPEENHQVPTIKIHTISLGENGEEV

Caspase-1 = molecular target: T5, Caspase-1 (Homo sapiens, UniProt P29466); design: species or system Escherichia coli
T5 sequence (P29466 whole entry): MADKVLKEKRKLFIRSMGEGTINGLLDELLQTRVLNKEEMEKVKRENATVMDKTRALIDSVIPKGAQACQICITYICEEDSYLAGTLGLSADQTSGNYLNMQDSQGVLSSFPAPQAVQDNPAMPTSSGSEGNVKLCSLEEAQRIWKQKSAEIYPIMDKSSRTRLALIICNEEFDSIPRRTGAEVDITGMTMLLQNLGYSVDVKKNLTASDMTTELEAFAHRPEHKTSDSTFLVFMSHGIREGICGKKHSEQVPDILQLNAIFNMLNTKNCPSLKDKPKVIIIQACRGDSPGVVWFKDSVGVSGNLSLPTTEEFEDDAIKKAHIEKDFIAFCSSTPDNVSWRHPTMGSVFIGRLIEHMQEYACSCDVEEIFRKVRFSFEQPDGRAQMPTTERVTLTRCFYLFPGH

[6] = DRUGMATRIX: Phorbol Ester radioligand binding (ligand: [3H] PDBu); type: cell membranes, Mus musculus, ICR, Brain, Membrane; details: Not Active = under 50% inhibition at 10 µM
[7] = molecular target: Tyrosine-protein kinase Lck (Homo sapiens, UniProt P06239); test: DRUGMATRIX: Protein Tyrosine Kinase, LCK enzyme inhibition (substrate: Poly(Glu:Tyr)); type: cell-based, Insect cells; details: insect cells; Not Active = under 50% inhibition at 10 µM
Tyrosine-protein kinase Lck, sequence (P06239 whole entry): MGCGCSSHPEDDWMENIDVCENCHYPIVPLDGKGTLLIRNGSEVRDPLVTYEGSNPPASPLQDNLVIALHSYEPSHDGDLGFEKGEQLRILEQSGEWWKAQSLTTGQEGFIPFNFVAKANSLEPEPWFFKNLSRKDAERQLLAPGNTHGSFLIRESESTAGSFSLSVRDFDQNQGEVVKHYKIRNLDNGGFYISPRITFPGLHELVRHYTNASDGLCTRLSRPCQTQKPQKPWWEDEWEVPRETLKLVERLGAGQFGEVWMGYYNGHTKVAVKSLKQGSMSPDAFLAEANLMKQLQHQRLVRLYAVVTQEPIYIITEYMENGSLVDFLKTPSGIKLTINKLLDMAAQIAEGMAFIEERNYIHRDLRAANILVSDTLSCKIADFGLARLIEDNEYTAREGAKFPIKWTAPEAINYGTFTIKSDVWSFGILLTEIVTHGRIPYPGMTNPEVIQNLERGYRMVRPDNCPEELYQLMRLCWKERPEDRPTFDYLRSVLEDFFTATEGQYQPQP

[8] = molecular target: Prostaglandin G/H synthase 1 (Homo sapiens, UniProt P23219); test: biochemical; type: tissue-based, Platelet; details: platelet
Prostaglandin G/H synthase 1, sequence (P23219 whole entry): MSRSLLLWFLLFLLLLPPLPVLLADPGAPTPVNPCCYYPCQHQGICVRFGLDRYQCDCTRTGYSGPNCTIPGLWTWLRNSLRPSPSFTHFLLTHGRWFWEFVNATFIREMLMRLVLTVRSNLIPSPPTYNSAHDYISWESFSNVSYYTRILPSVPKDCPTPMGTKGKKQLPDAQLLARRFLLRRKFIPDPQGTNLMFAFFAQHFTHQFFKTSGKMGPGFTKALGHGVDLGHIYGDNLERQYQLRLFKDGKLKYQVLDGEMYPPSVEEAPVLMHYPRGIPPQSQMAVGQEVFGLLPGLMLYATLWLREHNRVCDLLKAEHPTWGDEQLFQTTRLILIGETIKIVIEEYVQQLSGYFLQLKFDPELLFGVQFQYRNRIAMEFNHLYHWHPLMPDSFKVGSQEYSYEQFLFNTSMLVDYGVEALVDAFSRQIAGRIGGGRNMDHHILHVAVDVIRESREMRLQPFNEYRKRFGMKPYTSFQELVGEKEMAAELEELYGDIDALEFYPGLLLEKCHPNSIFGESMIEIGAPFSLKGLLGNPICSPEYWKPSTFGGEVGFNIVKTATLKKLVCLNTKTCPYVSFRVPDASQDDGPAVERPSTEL

[9] = molecular target: 5-hydroxytryptamine receptor 2B (Homo sapiens, UniProt P41595); type: cell membranes, CHO-K1, Membrane; details: for IC50: cho-k1; for pIC50: read-out: IC50; for pKi: read-out: Ki
5-hydroxytryptamine receptor 2B, sequence (P41595 whole entry): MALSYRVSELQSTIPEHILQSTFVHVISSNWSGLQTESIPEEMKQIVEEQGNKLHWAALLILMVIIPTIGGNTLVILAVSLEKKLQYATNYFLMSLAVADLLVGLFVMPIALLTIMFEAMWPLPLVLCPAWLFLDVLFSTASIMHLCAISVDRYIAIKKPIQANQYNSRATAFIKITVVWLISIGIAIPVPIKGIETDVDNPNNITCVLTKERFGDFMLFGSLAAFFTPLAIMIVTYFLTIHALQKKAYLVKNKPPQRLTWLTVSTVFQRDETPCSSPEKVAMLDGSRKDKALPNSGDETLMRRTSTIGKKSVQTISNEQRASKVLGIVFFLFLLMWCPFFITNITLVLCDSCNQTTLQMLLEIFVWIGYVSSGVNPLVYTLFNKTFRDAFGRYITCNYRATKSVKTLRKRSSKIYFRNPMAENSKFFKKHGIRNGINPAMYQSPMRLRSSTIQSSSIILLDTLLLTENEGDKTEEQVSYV

[10] = DRUGMATRIX: Serotonin (5-Hydroxytryptamine) 5-HT3 radioligand binding (ligand: [3H] GR-65630); type: cell membranes, Membrane; details: hek293; Not Active = under 50% inhibition at 10 µM

| Structure (SMILES) | IC50 [1] | IC50 (Cytochrome P450 2C19) | Ki (Cytochrome P450 2C19) | IC50 [2] | IC50 (B2 bradykinin receptor) | IC50 [3] | IC50 [4] | Ki [4] | IC50 [5] | IC50 (Caspase-1) | IC50 [6] | Ki [6] | IC50 [7] | IC50 [8] | IC50 [9] | IC50 [10] | Ki [10] | other results |
| --- | --- | --- | --- | --- | --- | --- | --- | --- | --- | --- | --- | --- | --- | --- | --- | --- | --- | --- |
| OCc1ccccc1 [BENZYL ALCOHOL] | Not Active | Not Active | Not Active | Not Active | Not Active | Not Active | Not Active | Not Active | Not Active | Not Active | Not Active | Not Active | Not Active | Not Active | Not Active | Not Active | Not Active | – |
| CC(C)(Oc1ccc(CCNC(=O)c2ccc(Cl)cc2)cc1)C(=O)O [BEZAFIBRATE] | Not Active | Not Active | Not Active | Not Active | Not Active | Not Active | Not Active | Not Active | Not Active | Not Active | Not Active | Not Active | Not Active | Not Active | Not Active | Not Active | Not Active | – |
| CCCC[C@@H](CC)COC(=O)c1ccccc1C(=O)OC[C@@H](CC)CCCC [BIS(2-ETHYLHEXYL)PHTHALATE] | Not Active | Not Active | Not Active | Not Active | Not Active | Not Active | Not Active | Not Active | Not Active | Not Active | Not Active | Not Active | Not Active | Not Active | Not Active | Not Active | Not Active | – |
| Brc1ccccc1 [BROMOBENZENE] | Not Active | Not Active | Not Active | Not Active | Not Active | Not Active | Not Active | Not Active | Not Active | Not Active | Not Active | Not Active | Not Active | Not Active | Not Active | Not Active | Not Active | – |
| CC[C@@]1(O)C(=O)OCc2c1cc1n(c2=O)Cc2cc3ccccc3nc2-1 [CAMPTOTHECIN] | Not Active | Not Active | Not Active | Not Active | Not Active | Not Active | Not Active | Not Active | Not Active | Not Active | Not Active | Not Active | Not Active | Not Active | – | Not Active | Not Active | pIC50 [9]: 6.01; pKi [9]: 6.21 |
| COCc1c(C(C)C)nc(C(C)C)c(/C=C/[C@@H](O)C[C@@H](O)CC(=O)O)c1-c1ccc(F)cc1 [CERIVASTATIN] | Not Active | Not Active | Not Active | Not Active | Not Active | Not Active | Not Active | Not Active | Not Active | Not Active | Not Active | Not Active | Not Active | Not Active | Not Active | Not Active | Not Active | – |
| O=C1CCc2cc(OCCCCc3nnnn3C3CCCCC3)ccc2N1 [CILOSTAZOL] | Not Active | Not Active | Not Active | Not Active | Not Active | Not Active | Not Active | Not Active | Not Active | Not Active | Not Active | Not Active | Not Active | Not Active | Not Active | Not Active | Not Active | – |
| CN(C)CCCC1(c2ccc(F)cc2)OCc2cc(C#N)ccc21 (centres undefined) [CITALOPRAM] | Not Active | Not Active | Not Active | Not Active | Not Active | Not Active | Not Active | Not Active | – | Not Active | Not Active | Not Active | Not Active | Not Active | – | Not Active | Not Active | pIC50 ([5]; read-out: IC50): 5.76; pKi ([5]; read-out: Ki): 6.15; pIC50 [9]: 5.74; pKi [9]: 5.93 |
